Data on 20 compounds can be found in PubChem BioAssay AID296 (DTP/NCI, 2004).

Where “and” joins values, the source holds several entries; their conditions need not be identical. Equal entries are not always repeated. Results filed as inconclusive are left out.

The test concerns MX-1 breast xenograft, nude mice, tumor weight T/C. In words: NCI In Vivo Anticancer Drug Screen. Data for tumor model Human Mammary Carcinoma MX-1 Xenograft (intrarenal inoculation) in NU/NU Swiss (nude) mice. The settings on record: endpoint: mean tumor weight change, higher = larger tumour. Summed up:
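Read-out: treated (T) over vehicle control (C) ratio of survival or tumor size. Dosing in animals carrying the transplanted tumor.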

Setting [1] is: dose: 25.0 mg/kg/injection, schedule: Q01DX010 (sc), vehicle: saline with Tween-80.
[2] abbreviates: dose: 400.0 mg/kg/injection, schedule: Q01DX010 (sc), vehicle: saline with Tween-80.
Setting [3] is: dose: 300.0 mg/kg/injection, schedule: Q04DX003 (sc), vehicle: Klucel (hydroxypropylcellulose) (HPC).
The mark [4] stands for this setting: dose: 600.0 mg/kg/injection, schedule: Q04DX003 (sc), vehicle: Klucel (hydroxypropylcellulose) (HPC).
Where [5] appears, read: dose: 1200.0 mg/kg/injection, schedule: Q04DX003 (sc), vehicle: Klucel (hydroxypropylcellulose) (HPC).
Setting [6] is: dose: 2400.0 mg/kg/injection, schedule: Q04DX003 (sc), vehicle: Klucel (hydroxypropylcellulose) (HPC).

For `ClCC[N+]12CC[N+](CCCl)(CC1)C2`, the T/C is 106 % of control (dose: 3.12 mg/kg/injection, schedule: Q01DX010 (sc), vehicle: saline with Tween-80); 69 % of control (dose: 6.25 mg/kg/injection, schedule: Q01DX010 (sc), vehicle: saline with Tween-80); 108 % of control (dose: 12.5 mg/kg/injection, schedule: Q01DX010 (sc), vehicle: saline with Tween-80); 96 % of control under setting [1]; 39 % of control and 57 % of control (dose: 50.0 mg/kg/injection, schedule: Q01DX010 (sc), vehicle: water); 51 % of control (dose: 75.0 mg/kg/injection, schedule: Q04DX003 (sc), vehicle: water). Further, the T/C is 7 % of control and 13 % of control (dose: 100.0 mg/kg/injection, schedule: Q01DX010 (sc), vehicle: water); 45 % of control and 63 % of control (dose: 135.0 mg/kg/injection, schedule: Q04DX003 (sc), vehicle: water); 15 % of control (dose: 150.0 mg/kg/injection, schedule: Q01DX010 (sc), vehicle: water); 32 % of control (dose: 150.0 mg/kg/injection, schedule: Q04DX003 (sc), vehicle: water); -36 % of control and -32 % of control (dose: 200.0 mg/kg/injection, schedule: Q01DX010 (sc), vehicle: water); 5 % of control under setting [2]. Also, the T/C (dose: 450.0 mg/kg/injection, schedule: Q04DX003 (sc), vehicle: water) was 12 % of control and 27 % of control.

Regarding `Nc1nc(N)c2cc(CNc3ccc(C(=O)NC(CC(=O)O)CC(=O)O)cc3)ccc2n1`, the T/C is 86 % of control (dose: 25.0 mg/kg/injection, schedule: Q04DX003 (sc), vehicle: Klucel (hydroxypropylcellulose) (HPC)); 96 % of control (dose: 50.0 mg/kg/injection, schedule: Q04DX003 (sc), vehicle: Klucel (hydroxypropylcellulose) (HPC)); 75 % of control (dose: 100.0 mg/kg/injection, schedule: Q04DX003 (sc), vehicle: Klucel (hydroxypropylcellulose) (HPC)); 85 % of control (dose: 200.0 mg/kg/injection, schedule: Q04DX003 (sc), vehicle: Klucel (hydroxypropylcellulose) (HPC)).

`c1cc2c(c(CC3CO3)c1CC1CO1)OCCOCCOCCOCCO2` (centres undefined): the T/C reads like this: (dose: 75.0 mg/kg/injection, schedule: Q04DX003 (ip), vehicle: saline + alcohol) 57 % of control; (dose: 150.0 mg/kg/injection, schedule: Q04DX003 (ip), vehicle: saline + alcohol) 65 % of control; (dose: 300.0 mg/kg/injection, schedule: Q04DX003 (ip), vehicle: saline + alcohol) 78 % of control.

With `COC1=CCC23C(=O)C=CC(=O)C2(C1)C(=O)c1ccccc1C3=O` (centres undefined), the T/C (dose: 37.5 mg/kg/injection, schedule: Q04DX003 (ip), vehicle: saline with Tween-80) was 109 % of control.

For `Cc1cc(NCCN(C(C)C)C(C)C)nc(/N=C(\N)Nc2ccc(Cl)c(C(F)(F)F)c2)n1`, the T/C is 64 % of control (dose: 80.0 mg/kg/injection, schedule: Q04DX003 (sc), vehicle: Klucel (hydroxypropylcellulose) (HPC)); 62 % of control (dose: 160.0 mg/kg/injection, schedule: Q04DX003 (sc), vehicle: Klucel (hydroxypropylcellulose) (HPC)); 81 % of control (dose: 320.0 mg/kg/injection, schedule: Q04DX003 (sc), vehicle: Klucel (hydroxypropylcellulose) (HPC)).

For the compound `COC(=O)C[C@](O)(CCCC(C)(C)O)C(=O)O[C@@H]1C(OC)=C[C@]23CCCN2CCc2cc4c(cc2[C@H]13)OCO4`, the T/C is, setting by setting: (dose: 0.5 mg/kg/injection, schedule: Q01DX010 (sc), vehicle: saline) 177 % of control; (dose: 1.0 mg/kg/injection, schedule: Q01DX010 (sc), vehicle: saline) 110 % of control.

Take `CC(=O)OC1OC(=O)C(C)(C(C)=O)C1C` (centres undefined): the T/C runs as follows: (dose: 5.0 mg/kg/injection, schedule: Q04DX003 (ip), vehicle: distilled water + alcohol) 85 % of control; (dose: 10.0 mg/kg/injection, schedule: Q04DX003 (ip), vehicle: distilled water + alcohol) 109 % of control; (dose: 20.0 mg/kg/injection, schedule: Q04DX003 (ip), vehicle: distilled water + alcohol) 35 % of control.

As for `O=NN(CCCl)C(=O)Oc1cc(Cl)c(Cl)cc1Cl`, the T/C under setting [3] was 64 % of control, the T/C under setting [4] is 35 % of control, the T/C under setting [5] was 21 % of control and the T/C under setting [6] is 33 % of control.

For the compound `S=P(N1CC1)(N1CC1)N1CC1`, for the setting “dose: 4.0 mg/kg/injection, schedule: Q01DX010 (sc), vehicle: saline”, the T/C is -94 % of control.

Consider `Cc1cc2c(c3oc(C4(C)OC4C4OC4C)cc(=O)c13)C(=O)c1c(O)c(C3CC(C)(N(C)C)C(O)C(C)O3)cc(C3CC(N(C)C)C(O)C(C)O3)c1C2=O` (centres undefined), for which the T/C is 77 % of control (dose: 0.05 mg/kg/injection, schedule: Q04DX003 (sc), vehicle: saline) and 30 % of control (dose: 0.1 mg/kg/injection, schedule: Q04DX003 (sc), vehicle: saline).

For the compound `O=c1n(CC2CO2)c(=O)n(CC2CO2)c(=O)n1CC1CO1` (centres undefined), the T/C was 26 % of control (dose: 25.0 mg/kg/injection, schedule: Q04DX003 (sc), vehicle: saline) and 4 % of control (dose: 50.0 mg/kg/injection, schedule: Q04DX003 (sc), vehicle: saline).

Turning to `Oc1c(Cl)cc(Cl)cc1C1N2CCCCC2C2c3cccn3-c3ccccc3N21` (centres undefined), the T/C under setting [3] is 105 % of control, the T/C under setting [4] was 66 % of control, the T/C under setting [5] is 88 % of control and the T/C under setting [6] is 82 % of control.

Take `COC(=O)C12OCC34C(CC5C(C)=CC(=O)C(O)C5(C)C3C(O)C1O)OC(=O)C(OC(=O)CC(C)C)C24` (centres undefined): the T/C is 107 % of control (dose: 1.5 mg/kg/injection, schedule: Q04DX003 (sc), vehicle: saline + alcohol) and 58 % of control (dose: 3.0 mg/kg/injection, schedule: Q04DX003 (sc), vehicle: saline + alcohol).

Turning to `Oc1ccc(SCc2ccc(NCc3ccccc3)cc2)cc1`, the T/C was 104 % of control under setting [1]; 46 % of control (dose: 50.0 mg/kg/injection, schedule: Q01DX010 (sc), vehicle: saline with Tween-80); 92 % of control (dose: 100.0 mg/kg/injection, schedule: Q01DX010 (sc), vehicle: saline with Tween-80); 74 % of control (dose: 200.0 mg/kg/injection, schedule: Q01DX010 (sc), vehicle: saline with Tween-80); 55 % of control under setting [2]; 94 % of control (dose: 800.0 mg/kg/injection, schedule: Q01DX010 (sc), vehicle: saline with Tween-80).

Take `NS(=O)(=O)OCCCCCCCOS(N)(=O)=O`: for the setting “dose: 150.0 mg/kg/injection, schedule: Q04DX003 (ip), vehicle: saline with Tween-80”, the T/C is -97 % of control.

Take `COc1cccc2c1C(=O)c1c(O)c3c(c(O)c1C2=O)C[C@@](O)(C(=O)CO)C[C@@H]3OC1CC(N)C(OC)C(C)O1` (some centres undefined): the T/C (dose: 1.5 mg/kg/injection, schedule: Q01DX010 (sc), vehicle: saline) is 54 % of control.

For the compound `CCOC(OCC)C(=O)OCC(=O)[C@]1(O)Cc2c(O)c3c(c(O)c2[C@@H](OC2CC(N)C(O)C(C)O2)C1)C(=O)c1c(OC)cccc1C3=O` (some centres undefined), under “dose: 4.0 mg/kg/injection, schedule: Q01DX010 (sc), vehicle: water”, the T/C is 27 % of control and 44 % of control.

For `COC(=O)Nc1ccc(Cc2ccc(NC(=O)OC)cc2)cc1`, the T/C is, setting by setting: (dose: 300.0 mg/kg/injection, schedule: Q04DX003 (sc), vehicle: saline with Tween-80) 87 % of control; (dose: 600.0 mg/kg/injection, schedule: Q04DX003 (sc), vehicle: saline with Tween-80) 119 % of control; (dose: 1200.0 mg/kg/injection, schedule: Q04DX003 (sc), vehicle: saline with Tween-80) 65 % of control; (dose: 2400.0 mg/kg/injection, schedule: Q04DX003 (sc), vehicle: saline with Tween-80) 48 % of control.

`Cc1ccc(NCCN(C)C)c2c(=O)c3cc(O)ccc3sc12`: the T/C runs as follows: (dose: 150.0 mg/kg/injection, schedule: Q04DX003 (sc), vehicle: Klucel (hydroxypropylcellulose) (HPC)) 54 % of control; under setting [3], 62 % of control; under setting [4], 120 % of control; under setting [5], 75 % of control.

As for `C=C1C(C)C2C(Cc3ccccc3)NC(=O)C23C(OC(C)=O)C=CC(C)(O)C(=O)C(C)C/C=C/C3C1O` (centres undefined), the T/C is, setting by setting: (dose: 3.75 mg/kg/injection, schedule: Q04DX003 (sc), vehicle: Klucel (hydroxypropylcellulose) (HPC)) 344 % of control; (dose: 7.5 mg/kg/injection, schedule: Q04DX003 (sc), vehicle: Klucel (hydroxypropylcellulose) (HPC)) 528 % of control; (dose: 15.0 mg/kg/injection, schedule: Q04DX003 (sc), vehicle: Klucel (hydroxypropylcellulose) (HPC)) 497 % of control.
